Results from patent publication US5030628A, “N-aryl-azetidinones, their preparation process and their use as elastase inhibitors” (Scientifique, priority 1988, dated 1991).
pKi: −log10 of the molar value.

Test system: elastase
Experiment: Effect on the degradation of elastin by elastase
Format: biochemical
Conditions: elastase previously incubated for 30 min. in the presence of an elastin excess (2mg)
Protocol: The effect of compound 5on the degradation of elastin, the natural substrate of elastase in the human organism was tested.

| deactivation of elastase previously incubated with elastin | Structure (SMILES) |
| --- | --- |
| remain capable of deactivating elastase | CS(=O)(=O)OCc1ccccc1N1CC(F)(F)C1=O [Compound 5c, N-(2-methanesulphonyloxymethylphenyl)-3,3-difluoro-2-azetidinone] |
| remain capable of deactivating elastase | O=C1N(c2ccccc2CCl)CC1(F)Br (stereo not shown) [5'a, N-(2-chloromethylphenyl)-3-fluoro-3bromo-2-azetidinone] |

| Structure (SMILES) | deactivation of elastase previously incubated with elastin |
| --- | --- |
| O=C1N(c2ccccc2CCl)CC1(F)F [Compound 5a, N-(2-chloromethylphenyl)-3,3-difluoro-2-azetidinone] | remain capable of deactivating elastase |

Same assay, conditions: elastase previously treated by the compound

| Structure (SMILES) | capacity of treated elastase to degrade elastin |
| --- | --- |
| O=C1N(c2ccccc2CCl)CC1(F)F [Compound 5a, N-(2-chloromethylphenyl)-3,3-difluoro-2-azetidinone] | lost its capacity to degrade elastin |

Test system: not listed separately
Experiment: Acute toxicity in male and female mice
Conditions: mouse, in vivo
Protocol: The acute toxicity of compound 5a researched on male and female mice exceeds 200 mg/kg.

| Structure (SMILES) | LD50 [mg/kg] |
| --- | --- |
| O=C1N(c2ccccc2CCl)CC1(F)F [Compound 5a, N-(2-chloromethylphenyl)-3,3-difluoro-2-azetidinone] | > 200 |

Test system: elastase
Experiment: Properties with respect to elastase (substrate or inhibitor)
Format: biochemical
Conditions: not given
Text: Thus, the nature of the R^3 substituent has a significant influence on the properties of the product obtained.

| elastase inhibition | elastase substrate | Structure (SMILES) |
| --- | --- | --- |
| not inhibitors | elastase substrates | O=C1N(c2ccccc2CF)CC1(F)F [Compound 5b, N-(2-fluoromethylphenyl)-3,3-difluoro-2-azetidinone] |
| not inhibitors | elastase substrates | O=C1N(c2ccc(CF)cc2)CC1(F)F [Compound 10b, N-(4-fluoromethylphenyl)-3,3-difluoro-2-azetidinone] |

Test system: trypsin
Experiment: Test as trypsin inhibitors under identical conditions
Format: biochemical
Conditions: not given
Text: (§1) The properties of the N-aryl-azetidinones obtained in examples 4, 5, 6, 7, 11, 17, 22 and 23 are checked and in particular their deactivation capacity for porcine pancreatic elastase (PPE) and human leucocytic elastase (HLE) using the methods of Kitz and Wilson for HLE in the case of compounds 5a, 5c, 5d, 5e, 5a' and 10a, the method of Kitz and Wilson for PPE in the case of compounds 5a, 5c, 5e and 10a and the method of Hart and O'Brian for PPE in the case of compounds 5a and 5'a. All the kinetic measurements are carried out at 37° C. and at a pH of 8 with a 0.1M tris buffer (PPE) or a 0.1M tris buffer, Brij 0.01%, NaN3 0.02% (HLE) (pH 7.5 for compound 5d).
(§2) On testing compounds 5, 5c, 5'a'under identical conditions as chymotrypsin or trypsin inhibitors, it can be seen that they have no action on these enzymes.

| Structure (SMILES) | action on trypsin |
| --- | --- |
| CS(=O)(=O)OCc1ccccc1N1CC(F)(F)C1=O [Compound 5c, N-(2-methanesulphonyloxymethylphenyl)-3,3-difluoro-2-azetidinone] | no action |
| O=C1N(c2ccccc2CCl)CC1(F)Br (stereo not shown) [5'a, N-(2-chloromethylphenyl)-3-fluoro-3bromo-2-azetidinone] | no action |
| O=C1N(c2ccccc2CCl)CC1(F)F [Compound 5a, N-(2-chloromethylphenyl)-3,3-difluoro-2-azetidinone] | no action |

Test system: chymotrypsin
Experiment: Test as chymotrypsin inhibitors under identical conditions
Format: biochemical
Conditions: not given
Text: as §1, §2

| Structure (SMILES) | action on chymotrypsin |
| --- | --- |
| CS(=O)(=O)OCc1ccccc1N1CC(F)(F)C1=O [Compound 5c, N-(2-methanesulphonyloxymethylphenyl)-3,3-difluoro-2-azetidinone] | no action |
| O=C1N(c2ccccc2CCl)CC1(F)Br (stereo not shown) [5'a, N-(2-chloromethylphenyl)-3-fluoro-3bromo-2-azetidinone] | no action |
| O=C1N(c2ccccc2CCl)CC1(F)F [Compound 5a, N-(2-chloromethylphenyl)-3,3-difluoro-2-azetidinone] | no action |

Target: porcine pancreatic elastase (PPE) (Sus scrofa, UniProt P00772)
Sequence (P00772 27-266): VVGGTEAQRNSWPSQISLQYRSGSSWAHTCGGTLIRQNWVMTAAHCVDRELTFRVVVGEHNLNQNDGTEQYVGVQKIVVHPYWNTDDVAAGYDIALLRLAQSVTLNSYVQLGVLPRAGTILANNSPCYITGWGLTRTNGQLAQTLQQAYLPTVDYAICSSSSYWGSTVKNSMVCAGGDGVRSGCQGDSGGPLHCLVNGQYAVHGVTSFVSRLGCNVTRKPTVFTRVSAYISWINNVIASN
Experiment: Deactivation of porcine pancreatic elastase (PPE), Kitz and Wilson / Hart and O'Brian kinetics
Format: biochemical
Conditions: not given
Protocol: (§3) All the kinetic measurements are carried out at 37° C. and at a pH of 8 with a 0.1M tris buffer (PPE) or a 0.1M tris buffer, Brij 0.01%, NaN3 0.02% (HLE) (pH 7.5 for compound 5d). The method of Hart and O'Brian was published in 1973 in Biochemistry, Vol. 12, pp. 2940-2945 and that of Kitz and Wilson in 1962 in J. Biol. Chem., Vol. 237, pp. 3245-3249. In this way the first order constant ki is determined for the formation of the deactivated enzyme and the dissociation constant Ki of the enzyme-inhibitor complex. The ki: Ki ratio is the apparent second order constant characterizing the deactivation.

| deactivation of PPE (in words) | Structure (SMILES) |
| --- | --- |
| deactivate | CS(=O)(=O)OCc1ccccc1N1CC(F)(F)C1=O [Compound 5c, N-(2-methanesulphonyloxymethylphenyl)-3,3-difluoro-2-azetidinone] |
| deactivate | O=C1N(c2ccccc2CCl)CC1(F)Br (stereo not shown) [5'a, N-(2-chloromethylphenyl)-3-fluoro-3bromo-2-azetidinone] |
| deactivate | O=C1N(c2ccc(CCl)cc2)CC1(F)F [Compound 10a, N-(4-chloromethylphenyl)-3,3-difluoro-2-azetidinone] |

| Structure (SMILES) | deactivation of PPE (in words) |
| --- | --- |
| O=C1N(c2ccccc2CCl)CC1(F)F [Compound 5a, N-(2-chloromethylphenyl)-3,3-difluoro-2-azetidinone] | deactivate |

Same assay, conditions: 37° C., pH 8, 0.1M tris buffer, Kitz and Wilson (5a, 5c, 5e, 10a), Hart and O'Brian (5a, 5'a), read-out: Ki (dissociation constant of the enzyme-inhibitor complex), PPE

| pKi | Structure (SMILES) |
| --- | --- |
| 3.23 | O=C1N(c2ccccc2CCl)CC1(Cl)Cl [Compound 5e, N-(2-chloromethylphenyl)-3,3-di-chloro-2-azetidinone] |
| 4.32 | CS(=O)(=O)OCc1ccccc1N1CC(F)(F)C1=O [Compound 5c, N-(2-methanesulphonyloxymethylphenyl)-3,3-difluoro-2-azetidinone] |
| 5.07 | O=C1N(c2ccccc2CCl)CC1(F)Br (stereo not shown) [5'a, N-(2-chloromethylphenyl)-3-fluoro-3bromo-2-azetidinone] |
| 3.18 | O=C1N(c2ccc(CCl)cc2)CC1(F)F [Compound 10a, N-(4-chloromethylphenyl)-3,3-difluoro-2-azetidinone] |

| Structure (SMILES) | pKi |
| --- | --- |
| O=C1N(c2ccccc2CCl)CC1(F)F [Compound 5a, N-(2-chloromethylphenyl)-3,3-difluoro-2-azetidinone] | 4.52 |

Same assay, conditions: 37° C., pH 8, 0.1M tris buffer, Kitz and Wilson (5a, 5c, 5e, 10a), Hart and O'Brian (5a, 5'a), read-out: ki (first order constant for the formation of the deactivated enzyme), PPE

| kinact [s⁻¹] | Structure (SMILES) |
| --- | --- |
| 0.028 | O=C1N(c2ccccc2CCl)CC1(Cl)Cl [Compound 5e, N-(2-chloromethylphenyl)-3,3-di-chloro-2-azetidinone] |
| 0.017 | CS(=O)(=O)OCc1ccccc1N1CC(F)(F)C1=O [Compound 5c, N-(2-methanesulphonyloxymethylphenyl)-3,3-difluoro-2-azetidinone] |
| 0.048 | O=C1N(c2ccccc2CCl)CC1(F)Br (stereo not shown) [5'a, N-(2-chloromethylphenyl)-3-fluoro-3bromo-2-azetidinone] |
| 0.075 | O=C1N(c2ccc(CCl)cc2)CC1(F)F [Compound 10a, N-(4-chloromethylphenyl)-3,3-difluoro-2-azetidinone] |

| Structure (SMILES) | kinact [s⁻¹] |
| --- | --- |
| O=C1N(c2ccccc2CCl)CC1(F)F [Compound 5a, N-(2-chloromethylphenyl)-3,3-difluoro-2-azetidinone] | 0.031 |

Same assay, conditions: 37° C., pH 8, 0.1M tris buffer, read-out: ki/Ki (apparent second order constant characterizing the deactivation), PPE

| kinact/KI [M⁻¹ s⁻¹] | Structure (SMILES) |
| --- | --- |
| 47 | O=C1N(c2ccccc2CCl)CC1(Cl)Cl [Compound 5e, N-(2-chloromethylphenyl)-3,3-di-chloro-2-azetidinone] |
| 354 | CS(=O)(=O)OCc1ccccc1N1CC(F)(F)C1=O [Compound 5c, N-(2-methanesulphonyloxymethylphenyl)-3,3-difluoro-2-azetidinone] |
| 5650 | O=C1N(c2ccccc2CCl)CC1(F)Br (stereo not shown) [5'a, N-(2-chloromethylphenyl)-3-fluoro-3bromo-2-azetidinone] |
| 113 | O=C1N(c2ccc(CCl)cc2)CC1(F)F [Compound 10a, N-(4-chloromethylphenyl)-3,3-difluoro-2-azetidinone] |

| Structure (SMILES) | kinact/KI [M⁻¹ s⁻¹] |
| --- | --- |
| O=C1N(c2ccccc2CCl)CC1(F)F [Compound 5a, N-(2-chloromethylphenyl)-3,3-difluoro-2-azetidinone] | 1030 |

Target: T1, human leucocytic elastase (HLE) (Homo sapiens, UniProt P08246)
T1 sequence (P08246 30-267): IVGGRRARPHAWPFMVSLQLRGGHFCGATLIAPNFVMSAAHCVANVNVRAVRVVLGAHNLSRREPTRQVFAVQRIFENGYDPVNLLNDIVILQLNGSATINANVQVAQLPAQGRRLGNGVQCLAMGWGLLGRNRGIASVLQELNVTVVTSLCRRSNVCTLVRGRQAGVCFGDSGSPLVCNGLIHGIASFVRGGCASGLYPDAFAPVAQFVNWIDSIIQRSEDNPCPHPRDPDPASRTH
Experiment: Deactivation of human leucocytic elastase (HLE), Kitz and Wilson kinetics
Format: biochemical
Conditions: not given
Protocol: as §3

| deactivation of HLE (in words) | Structure (SMILES) |
| --- | --- |
| deactivate | CS(=O)(=O)OCc1ccccc1N1CC(F)(F)C1=O [Compound 5c, N-(2-methanesulphonyloxymethylphenyl)-3,3-difluoro-2-azetidinone] |
| deactivate | O=C1N(c2ccccc2CCl)CC1(F)Br (stereo not shown) [5'a, N-(2-chloromethylphenyl)-3-fluoro-3bromo-2-azetidinone] |
| deactivate | O=C1N(c2ccc(CCl)cc2)CC1(F)F [Compound 10a, N-(4-chloromethylphenyl)-3,3-difluoro-2-azetidinone] |

| Structure (SMILES) | deactivation of HLE (in words) |
| --- | --- |
| O=C1N(c2ccccc2CCl)CC1(F)F [Compound 5a, N-(2-chloromethylphenyl)-3,3-difluoro-2-azetidinone] | deactivate |

Same assay, conditions: 37° C., pH 7.5 for compound 5d, 0.1M tris buffer, Brij 0.01%, NaN3 0.02%, Kitz and Wilson, read-out: ki/Ki (apparent second order constant characterizing the deactivation), HLE, pH 7.5

| kinact/KI [M⁻¹ s⁻¹] | Structure (SMILES) |
| --- | --- |
| 40 | O=C1N(c2ccccc2CBr)CC1(F)F [Compound 5d, N-(2-bromomethylphenyl)-3,3-difluoro-2-azetidinone] |

Same assay, conditions: 37° C., pH 8, 0.1M tris buffer, Brij 0.01%, NaN3 0.02%, Kitz and Wilson, read-out: Ki (dissociation constant of the enzyme-inhibitor complex), HLE

| pKi | Structure (SMILES) |
| --- | --- |
| 3.30 | O=C1N(c2ccccc2CCl)CC1(Cl)Cl [Compound 5e, N-(2-chloromethylphenyl)-3,3-di-chloro-2-azetidinone] |
| 3.30 | CS(=O)(=O)OCc1ccccc1N1CC(F)(F)C1=O [Compound 5c, N-(2-methanesulphonyloxymethylphenyl)-3,3-difluoro-2-azetidinone] |
| 2.93 | O=C1N(c2ccccc2CCl)CC1(F)Br (stereo not shown) [5'a, N-(2-chloromethylphenyl)-3-fluoro-3bromo-2-azetidinone] |

| Structure (SMILES) | pKi |
| --- | --- |
| O=C1N(c2ccccc2CCl)CC1(F)F [Compound 5a, N-(2-chloromethylphenyl)-3,3-difluoro-2-azetidinone] | 4.78 |

Same assay, conditions: 37° C., pH 8, 0.1M tris buffer, Brij 0.01%, NaN3 0.02%, Kitz and Wilson, read-out: ki (first order constant for the formation of the deactivated enzyme), HLE

| kinact [s⁻¹] | Structure (SMILES) |
| --- | --- |
| 0.03 | O=C1N(c2ccccc2CCl)CC1(Cl)Cl [Compound 5e, N-(2-chloromethylphenyl)-3,3-di-chloro-2-azetidinone] |
| 0.05 | CS(=O)(=O)OCc1ccccc1N1CC(F)(F)C1=O [Compound 5c, N-(2-methanesulphonyloxymethylphenyl)-3,3-difluoro-2-azetidinone] |
| 0.37 | O=C1N(c2ccccc2CCl)CC1(F)Br (stereo not shown) [5'a, N-(2-chloromethylphenyl)-3-fluoro-3bromo-2-azetidinone] |

| Structure (SMILES) | kinact [s⁻¹] |
| --- | --- |
| O=C1N(c2ccccc2CCl)CC1(F)F [Compound 5a, N-(2-chloromethylphenyl)-3,3-difluoro-2-azetidinone] | 0.005 |

Same assay, conditions: 37° C., pH 8, 0.1M tris buffer, Brij 0.01%, NaN3 0.02%, Kitz and Wilson, read-out: ki/Ki (apparent second order constant characterizing the deactivation), HLE

| kinact/KI [M⁻¹ s⁻¹] | Structure (SMILES) |
| --- | --- |
| 60 | O=C1N(c2ccccc2CCl)CC1(Cl)Cl [Compound 5e, N-(2-chloromethylphenyl)-3,3-di-chloro-2-azetidinone] |
| 100 | CS(=O)(=O)OCc1ccccc1N1CC(F)(F)C1=O [Compound 5c, N-(2-methanesulphonyloxymethylphenyl)-3,3-difluoro-2-azetidinone] |
| 316 | O=C1N(c2ccccc2CCl)CC1(F)Br (stereo not shown) [5'a, N-(2-chloromethylphenyl)-3-fluoro-3bromo-2-azetidinone] |
| ~1.2 | O=C1N(c2ccc(CCl)cc2)CC1(F)F [Compound 10a, N-(4-chloromethylphenyl)-3,3-difluoro-2-azetidinone] |

| Structure (SMILES) | kinact/KI [M⁻¹ s⁻¹] |
| --- | --- |
| O=C1N(c2ccccc2CCl)CC1(F)F [Compound 5a, N-(2-chloromethylphenyl)-3,3-difluoro-2-azetidinone] | 301 |
